According to patent publication US20240100065A1, “METHODS FOR TREATING RECEPTOR-INTERACTING PROTEIN KINASE 1-MEDIATED DISEASES” (Genzyme Corporation, priority 2022, published 2024):
Where two headings read alike, the source gives them in different places.

Assay: Plasma pharmacokinetics after single and repeated oral doses
Assay type: in vivo, healthy adult participants (human)
Conditions: for Time to steady state (Tss), 50% median, point estimate / Time to steady state (Tss), 90% quantile, point estimate: overall; for AUC / AUC(0-t) / Cmax / Tmax / Vd/F: human, plasma, oral; for Vd/F: read-out: Vz/F, mean
Procedure: In Part 1a, plasma samples were collected before dosing and at 10 post-dose timepoints on Day 1 (30 minutes, 1 hour, followed by every hour until 6 hours, and then every 2 hours until 12 hours), and single samples on Day 2 (at 24 hours) and Day 3 (at 48 hours). In Part 1b, timepoints included at least pre-dose and at 10 post-dose timepoints, including plasma sampling at the same time of CSF sampling. In Part 2, on Day 1 and Day 14, plasma samples were collected at pre-dose and at 10 to 11 post-dose timepoints. In addition, plasma samples were collected on Days 2, 3, 5, 7, 11, 15, 16, and 17.
PK population included all participants exposed to Compound 1 with no major or critical deviations related to Compound 1 and for whom PK data were considered sufficient and interpretable. PK parameters were summarized by descriptive statistics for each dose level group. Distribution of Tmax values was represented by histogram plots for each dose level group. In Part 1a, dose proportionality was assessed using a linear model on Cmax, AUClast and AUC. In Part 2, all PK analyses were performed separately for each regimen (OD and BID). Steady state was assessed on Ctrough using a non-linear model. Accumulation was assessed using a linear model on log-transformed accumulation ratio. Dose proportionality was assessed using a power model on Cmax and AUCtau on Day 1 and Day 14, separately. Variance components of log-transformed Cmax and AUCtau were estimated using a linear model. In Part 1b, CSF concentration was described by dose level group and CSF to plasma unbound concentration ratios calculated were described in the same way. 4β-hydroxycholesterol on Day 14 versus Day 1 pre-dose concentration ratios were summarized using descriptive statistics by dose level group and point estimates with 90% confidence interval (90% CI) for the geometric mean of the log-transformed Day14/Day1 ratio was calculated in Part 2.

[1] = Part 2, cohorts at 10 and 20 mg QD
[2] = Part 2, cohorts at 15 and 20 mg BID
[3] = Part 2 Day 1, 10 mg QD, tau 24 hours
[4] = Part 2 Day 1, 15 mg BID, fasted
[5] = Part 2 Day 1, 20 mg BID, fasted
[6] = Part 2 Day 1, 20 mg BID, tau 12 hours
[7] = Part 2 Day 14 steady state, 10 mg QD
[8] = Part 2 Day 14 steady state, 15 mg BID
[9] = Part 2 Day 14 steady state, 20 mg BID
[10] = Part 2 Day 14 steady state, 20 mg QD
[11] = Part 2 Day 14 steady state, 20 mg QD, tau 24 hours

CC(C)(C(=O)N1CCOc2c(C#N)cncc2C1)C(F)F [Compound 1, 4-(3,3-difluoro-2,2-dimethyl-propanoyl)-3,5-dihydro-2H-pyrido[3,4-f] [1,4]oxazepine-9-carbonitrile]
Time to steady state (Tss), 50% median, point estimate [1]: 1.81 days | Time to steady state (Tss), 90% quantile, point estimate [1]: 2.45 days | Time to steady state (Tss), 50% median, point estimate [2]: 1.43 days | Time to steady state (Tss), 90% quantile, point estimate [2]: 1.65 days | Cmax, Gmean (Part 2 Day 1, 10 mg QD, fasted): (157) [20.7] ng/mL | Tmax, median (Part 2 Day 1, 10 mg QD, fasted): 1.00 h | AUCtau, Gmean [3]: (1080) h*ng/ml | AUCtau, mean ± SD [3]: 1110 ± 268 ng·h/mL | Cmax, Gmean [4]: (211) [44.2] ng/mL | Tmax, median [4]: 1.00 h | AUCtau, Gmean (Part 2 Day 1, 15 mg BID, tau 12 hours): (1100) [33.1] h*ng/ml | Cmax, Gmean [5]: (205) [20.3] ng/mL | Cmax, mean ± SD [5]: 209 ± 42.4 ng/mL | Tmax, median [5]: 2.00 h | AUCtau, Gmean [6]: (1350) h*ng/ml | AUCtau, mean ± SD [6]: 1370 ± 252 ng·h/mL | Cmax, Gmean (Part 2 Day 1, 20 mg QD, fasted): (240) [20.2] ng/mL | Tmax, median (Part 2 Day 1, 20 mg QD, fasted): 1.50 h | AUCtau, Gmean (Part 2 Day 1, 20 mg QD, tau 24 hours): (1860) [22.5 h*ng/ml | CLSS/F, Gmean (Part 2 Day 14, 10 mg QD): (7.08) [25.9] L/h | CLSS/F, mean ± SD (Part 2 Day 14, 10 mg QD): 7.30 ± 1.89 L/h | Ctrough, Gmean (Part 2 Day 14, 10 mg QD): (19.9) [57.0] ng/mL | Ctrough, mean ± SD (Part 2 Day 14, 10 mg QD): 22.8 ± 13.0 ng/mL | T1/2z, Gmean (Part 2 Day 14, 10 mg QD): (8.87) [23.2] h | T1/2z, mean ± SD (Part 2 Day 14, 10 mg QD): 9.07 ± 2.11 h | CLSS/F, Gmean (Part 2 Day 14, 15 mg BID): (9.16) [30.0] L/h | CLSS/F, mean ± SD (Part 2 Day 14, 15 mg BID): 9.54 ± 2.86 L/h | Ctrough, Gmean (Part 2 Day 14, 15 mg BID): (79.3) [33.0] ng/mL | Ctrough, mean ± SD (Part 2 Day 14, 15 mg BID): 83.7 ± 27.4 ng/mL | T1/2z, Gmean (Part 2 Day 14, 15 mg BID): (7.21) [15.6] h | T1/2z, mean ± SD (Part 2 Day 14, 15 mg BID): 7.29 ± 1.14 h | CLSS/F, Gmean (Part 2 Day 14, 20 mg BID): (9.27) [24.9] L/h | CLSS/F, mean ± SD (Part 2 Day 14, 20 mg BID): 9.53 ± 2.37 L/h | Ctrough, Gmean (Part 2 Day 14, 20 mg BID): (99.3) [40.0] ng/mL | Ctrough, mean ± SD (Part 2 Day 14, 20 mg BID): 107 ± 42.7 ng/mL | T1/2z, Gmean (Part 2 Day 14, 20 mg BID): (7.37) [23.0] h | T1/2z, mean ± SD (Part 2 Day 14, 20 mg BID): 7.54 ± 1.74 h | CLSS/F, Gmean (Part 2 Day 14, 20 mg QD): (9.40) [22.2] L/h | CLSS/F, mean ± SD (Part 2 Day 14, 20 mg QD): 9.60 ± 2.14 L/h | Ctrough, Gmean (Part 2 Day 14, 20 mg QD): (30.4) [49.0] ng/mL | Ctrough, mean ± SD (Part 2 Day 14, 20 mg QD): 34.2 ± 16.6 ng/mL | T1/2z, Gmean (Part 2 Day 14, 20 mg QD): (8.53) [19.0] h | T1/2z, mean ± SD (Part 2 Day 14, 20 mg QD): 8.68 ± 1.65 h | Cmax, Gmean [7]: (158) [31.9] ng/mL | Tmax, median [7]: 1.00 h | AUCtau, Gmean (Part 2 Day 14 steady state, 10 mg QD, tau 24 hours): (1410) [27.4] h*ng/mL | Cmax, Gmean [8]: (268) [36.3] ng/mL | Tmax, median [8]: 1.00 h | AUCtau, Gmean (Part 2 Day 14 steady state, 15 mg BID, tau 12 hours): (1640) [32.5] h*ng/mL | Cmax, Gmean [9]: (353) [19.9] ng/mL | Tmax, median [9]: 1.00 h | AUCtau, Gmean (Part 2 Day 14 steady state, 20 mg BID, tau 12 hours): (2160) [25.9] h*ng/mL | Cmax, Gmean [10]: (250) [22.7] ng/mL | Tmax, median [10]: 2.00 h | AUCtau, Gmean [11]: (2130) [21.4] h*ng/mL | AUCtau, mean ± SD [11]: 2170 ± 465 ng·h/mL | Accumulation ratio (AUC0-24h), Day 14/Day 1 (Pooled doses QD): ~1.22 | Within-subject variability for AUCtau (QD cohorts): 8.0% | Within-subject variability for Cmax (QD cohorts): 15.8% | Total variability for AUCtau (QD dosing regimen): 21.6% | Total variability for Cmax (QD dosing regimen): 20.6% | AUC (10 mg, Part 1a single 10 mg fasted, read-out: AUC, mean): 1250 ng·h/mL | AUC(0-t) (10 mg, Part 1a single 10 mg fasted, read-out: AUClast, mean): 1200 ng·h/mL | Cmax (10 mg, Part 1a single 10 mg fasted, read-out: Cmax, mean): 119 ng/mL | AUC (10 mg, Part 1b single 10 mg fed, read-out: AUC, mean): 1460 ng·h/mL | AUC(0-t) (10 mg, Part 1b single 10 mg fed, read-out: AUClast, mean): 1220 ng·h/mL | Cmax (10 mg, Part 2 Day 1, 10 mg QD, fasted, read-out: Cmax, mean ± SD): 161 ± 33.2 ng/mL | AUC (10 mg, Part 2 Day 14 steady state, 10 mg QD, tau 24 hours, read-out: AUCtau, mean ± SD): 1460 ± 399 ng·h/mL | Cmax (10 mg, Part 2 Day 14 steady state, 10 mg QD, read-out: Cmax, mean ± SD): 164 ± 52.3 ng/mL | Cmax (15 mg, Part 2 Day 1, 15 mg BID, fasted, read-out: Cmax, mean ± SD): 229 ± 101 ng/mL | AUC (15 mg, Part 2 Day 1, 15 mg BID, tau 12 hours, read-out: AUCtau, mean ± SD): 1150 ± 380 ng·h/mL | AUC (15 mg, Part 2 Day 14 steady state, 15 mg BID, tau 12 hours, read-out: AUCtau, mean ± SD): 1710 ng·h/mL | Cmax (15 mg, Part 2 Day 14 steady state, 15 mg BID, read-out: Cmax, mean ± SD): 284 ng/mL | AUC(0-t) (20 mg, 20 mg BID, read-out: AUC0-24 h (corresponding to AUC0-12 h*2)): 15 µM·h | Cmax (20 mg, 20 mg BID, read-out: Mean observed Cmax): 1220 nM | AUC(0-t) (20 mg, 20 mg QD, MAD study, read-out: Mean observed AUC0-24 at steady state): 7.35 µM·h | Cmax (20 mg, Part 1a single 20 mg fasted, read-out: Cmax, mean): 245 ng/mL | Cmax (20 mg, Part 2 Day 1, 20 mg QD, fasted, read-out: Cmax, mean ± SD): 245 ± 49.5 ng/mL | AUC (20 mg, Part 2 Day 1, 20 mg QD, tau 24 hours, read-out: AUCtau, mean ± SD): 1910 ± 429 ng·h/mL | AUC (20 mg, Part 2 Day 14 steady state, 20 mg BID, tau 12 hours, read-out: AUCtau, mean ± SD): 2220 ± 574 ng·h/mL | Cmax (20 mg, Part 2 Day 14 steady state, 20 mg BID, read-out: Cmax, mean ± SD): 359 ± 71.6 ng/mL | Cmax (20 mg, Part 2 Day 14 steady state, 20 mg QD, read-out: Cmax, mean ± SD): 255 ± 58 ng/mL | AUC (30 mg, Part 1a single 30 mg fasted, read-out: AUC, mean): 2570 ng·h/mL | AUC(0-t) (30 mg, Part 1a single 30 mg fasted, read-out: AUClast, mean): 2540 ng·h/mL | Cmax (30 mg, Part 1a single 30 mg fasted, read-out: Cmax, mean): 439 ng/mL | AUC (40 mg, Part 1a single 40 mg fasted, read-out: AUC, mean): 5460 ng·h/mL | AUC(0-t) (40 mg, Part 1a single 40 mg fasted, read-out: AUClast, mean): 5390 ng·h/mL | Cmax (40 mg, Part 1a single 40 mg fasted, read-out: Cmax, mean): 576 ng/mL | AUC (40 mg, Part 1b single 40 mg fed, read-out: AUC, mean): 5060 ng·h/mL | AUC(0-t) (40 mg, Part 1b single 40 mg fed, read-out: AUClast, mean): 4100 ng·h/mL | Cmax (40 mg, Part 1b single 40 mg fed, read-out: Cmax, mean): 381 ng/mL | Tmax (Part 1a, single 10 to 40 mg, fasted, read-out: Median tmax across doses): 1 to 1.5 h | Tmax (Part 2, single or repeated administration, fasted, read-out: Median Tmax across dose levels): 1 to 2 h | Vd/F (Part 1a single 40 mg fasted): 71.7 L | Vd/F (Part 1b single 10 mg fed): 86 L
